From ChEMBL document CHEMBL4616700, “Novel HIV-1 Protease Inhibitors with Morpholine as the P2 Ligand to Enhance Activity against DRV-Resistant Variants” (ACS Med Chem Lett, 2020)

Experiments:
[1] = tested on: Human immunodeficiency virus 1; experiment: Antiviral activity against wild type HIV-1; assay type: functional, organism-based
[2] = target: Human immunodeficiency virus type 1 protease (Human immunodeficiency virus 1, UniProt Q72874); experiment: (§1) Inhibition of wild type HIV1 protease expressed in Escherichia coli using Arg-Glu (EDANS)-Ser-Gln-Asn-Tyr-Pro-Ile-Val-Gln-Lys(DABCYL)-Arg as substrate preincubated for 20 to 30 mins followed by substrate addition and measured for 10 mins by FRET assay
[3] = tested on: Human immunodeficiency virus 1; experiment: Antiviral activity against VSV-G pseudotyped HIV1 NL4-3 in human TZM-bl cells infected with virus particles extracted from human SupT1 cells infected with HIV1 NL4-3 at 10 uM incubated for 48 hrs assessed as inhibition of late stage viral infection by luciferase assay relative to control; assay type: functional; settings: Human immunodeficiency virus 1, NL4-3, TZM
[4] = tested on: Human immunodeficiency virus 1; experiment: Antiviral activity against VSV-G pseudotyped HIV1 NL4-3 infected in human SupT1 cells assessed as inhibition of early stage viral infection at 10 uM after 48 hrs by luciferase assay relative to control; assay type: functional; settings: Human immunodeficiency virus 1, NL4-3, SUP-T1, 48 h
[5] = tested on: Human immunodeficiency virus 1; experiment: (§2) Antiviral activity against VSV-G pseudotyped darunavir-resistant HIV1 NL4-3 in human SupT1 cells infected with supernatants of virus particles extracted from human 293T cells infected with darunavir-resistant HIV1 NL4-3 incubated for 48 hrs assessed as inhibition of late stage viral infection by single-round infection based luciferase reporter assay; assay type: functional, organism-based; settings: Human immunodeficiency virus 1, NL4-3, 48 h
[6] = tested on: Human immunodeficiency virus 1; experiment: as §2, with “wild type” for “darunavir-resistant”; assay type: functional, organism-based; settings: Human immunodeficiency virus 1, NL4-3, 48 h
[7] = target: Human immunodeficiency virus type 1 protease (Human immunodeficiency virus 1) (UniProt Q72874); experiment: as §1, with “Potency index, ratio of Darunavir Ki to compound Ki for inhibition” for “Inhibition”
[8] = tested on: Human immunodeficiency virus 1; experiment: Potency index, ratio of Darunavir IC50 to compound IC50 for antiviral activity against wild type HIV-1; assay type: functional

SMILES | IC50 [1] | Ki [2] | also measured
COc1ccc(S(=O)(=O)N(CC(C)C)C[C@@H](O)[C@H](Cc2ccccc2)NCCN2CCOCC2)cc1 | 1110 nM | 250 nM | 
CC(C)CN(C[C@@H](O)[C@H](Cc1ccccc1)NC(=O)N1CCOCC1)S(=O)(=O)c1ccc(C(F)(F)F)cc1 | 75 nM | 16.8 nM | 
CC(C)CN(C[C@@H](O)[C@H](Cc1ccccc1)NCC(=O)N1CCOCC1)S(=O)(=O)c1ccc(C(F)(F)F)cc1 | 568 nM | 127 nM | 
CC(C)CN(C[C@@H](O)[C@H](Cc1ccccc1)NCCN1CCOCC1)S(=O)(=O)c1ccc(C(F)(F)F)cc1 | 1500 nM | 336 nM | 
CC(C)CN(C[C@@H](O)[C@H](Cc1ccccc1)NC[C@H](O)CN1CCOCC1)S(=O)(=O)c1ccc(C(F)(F)F)cc1 | 1500 nM | 651 nM | 
COc1ccc(S(=O)(=O)N(CC(C)C)C[C@@H](O)[C@H](Cc2ccccc2)NC(=O)N2CCOCC2)cc1 | 0.95 nM | 0.21 nM | inhibition at 10 µM [3]: 91%; inhibition at 10 µM [4]: 12%; EC50 [5]: 4900 nM; EC50 [6]: 2000 nM; Ratio Ki [7]: 2; Ratio IC50 [8]: 2
COc1ccc(S(=O)(=O)N(CC(C)C)C[C@@H](O)[C@H](Cc2ccccc2)NC[C@H](O)CN2CCOCC2)cc1 | 1500 nM | 750 nM | 
CC(C)CN(C[C@@H](O)[C@H](Cc1ccccc1)NC[C@H](O)CN1CCOCC1)S(=O)(=O)c1ccc(N)cc1 | 881 nM | 197 nM | 
CC(C)CN(C[C@@H](O)[C@H](Cc1ccccc1)NC(=O)OCCN1CCOCC1)S(=O)(=O)c1ccc(C(F)(F)F)cc1 | 9.92 nM | 2.22 nM | 
COc1ccc(S(=O)(=O)N(CC(C)C)C[C@@H](O)[C@H](Cc2ccccc2)NC(=O)CN2CCO[C@H](C)C2)cc1 | 63.6 nM | 14.2 nM | 
CC(C)CN(C[C@@H](O)[C@H](Cc1ccccc1)NC(=O)O[C@H]1CO[C@H]2OCC[C@H]21)S(=O)(=O)c1ccc(N)cc1 |  |  | inhibition at 10 µM [3]: 100%; EC50 [5]: 240 nM; EC50 [6]: 3.9 nM
CC(C)CN(C[C@@H](O)[C@H](Cc1ccccc1)NC(=O)N1CCOCC1)S(=O)(=O)c1ccc(N)cc1 | 32.5 nM | 7.28 nM | 
COc1ccc(S(=O)(=O)N(CC(C)C)C[C@@H](O)[C@H](Cc2ccccc2)NCC(=O)N2CCOCC2)cc1 | 1330 nM | 298 nM | 
CC(C)CN(C[C@@H](O)[C@H](Cc1ccccc1)NC(=O)CN1CCO[C@@H](C)C1)S(=O)(=O)c1ccc(N)cc1 | 127 nM | 28.4 nM | 
COc1ccc(S(=O)(=O)N(CC(C)C)C[C@@H](O)[C@H](Cc2ccccc2)NC(=O)OCCN2CCOCC2)cc1 | 0.41 nM | 0.09 nM | inhibition at 10 µM [3]: 94%; inhibition at 10 µM [4]: 5%; EC50 [5]: 9500 nM; EC50 [6]: 1200 nM; Ratio Ki [7]: 4; Ratio IC50 [8]: 4
CC(C)CN(C[C@@H](O)[C@H](Cc1ccccc1)NC(=O)OCCN1CCOCC1)S(=O)(=O)c1ccc(N)cc1 | 3.85 nM | 0.86 nM | 
CC(C)CN(C[C@@H](O)[C@H](Cc1ccccc1)NCCN1CCOCC1)S(=O)(=O)c1ccc(N)cc1 | 429 nM | 96.2 nM | 
CC(C)CN(C[C@@H](O)[C@H](Cc1ccccc1)NCC(=O)N1CCOCC1)S(=O)(=O)c1ccc(N)cc1 | 102 nM | 22.8 nM | 
COc1ccc(S(=O)(=O)N(CC(C)C)C[C@@H](O)[C@H](Cc2ccccc2)NC(=O)CN2CCO[C@@H](C)C2)cc1 | 25.5 nM | 5.71 nM | 
CC(C)CN(C[C@@H](O)[C@H](Cc1ccccc1)NC(=O)CN1CCO[C@H](C)C1)S(=O)(=O)c1ccc(C(F)(F)F)cc1 | 272 nM | 61 nM | 
CC(C)CN(C[C@@H](O)[C@H](Cc1ccccc1)NC(=O)CN1CCO[C@H](C)C1)S(=O)(=O)c1ccc(N)cc1 | 84.6 nM | 18.9 nM | 
COc1ccc(S(=O)(=O)N(CC(C)C)C[C@@H](O)[C@H](Cc2ccccc2)NC(=O)CN2CCOCC2)cc1 | 33.2 nM | 7.44 nM | 
CC(C)CN(C[C@@H](O)[C@H](Cc1ccccc1)NC(=O)CN1CCOCC1)S(=O)(=O)c1ccc(C(F)(F)F)cc1 | 44.2 nM | 9.9 nM | 
CC(C)CN(C[C@@H](O)[C@H](Cc1ccccc1)NC(=O)CN1CCOCC1)S(=O)(=O)c1ccc(N)cc1 | 37.7 nM | 8.45 nM | 
CC(C)CN(C[C@@H](O)[C@H](Cc1ccccc1)NC(=O)CN1CCO[C@@H](C)C1)S(=O)(=O)c1ccc(C(F)(F)F)cc1 | 419 nM | 93.9 nM | 
